This note sets out measurements from US6709679B2, “Antineoplastic conjugates of transferin, albumin and polyethylene glycol” (priority 1996, dated 2004).

The data set deals with mammary carcinoma MCF-7. Put plainly: xeno-transplantable naked-mouse model, mammary carcinoma MCF-7 s.c. Format: in vivo, mice (Ncr:nu/nu female). The method, then: The dose refers to the amount of doxorubicin available. […] In the case of the highest dose employed in the experiment (12 mg/kg), there appears a very high lethalness (5 of 7 and 7 of 7 animals, respectively) in the therapy with doxorubicin.

Consider `COc1cccc2c1C(=O)c1c(O)c3c(c(O)c1C2=O)C[C@@](O)(C(=O)CO)C[C@@H]3O[C@H]1C[C@H](N)[C@H](O)[C@H](C)O1` [doxorubicin], for which the “optimum TIC (%)” value reads like this: (dose 4 mg/kg/inj. i.v. day 16 and 23) 61%; (dose 8 mg/kg/inj. i.v. day 16 and 23) 39%. Further, the “mortality (d)” value runs as follows: (dose 8 mg/kg/inj. i.v. day 16 and 23, number of deaths (day), 8 mice) 1 (26); (dose 12 mg/kg/inj. i.v. day 16 and 23, number of deaths (days), 7 mice) 7 (25-33).
